{"source": "patent US9738661", "note": "Like-named read-outs stand apart in the source and are kept apart here."}
{"smiles": "COC(=O)[C@@H]1C[C@@H]2CN1C(=O)[C@H](C(C)(C)C)NC(=O)O[C@@H]1CCC[C@H]1CCCC=Cc1nc3ccc(OC)cc3cc1O2", "values": [{"measurement": "ring closure, yield of all isomers", "setting": "from C=CCCC[C@@H]1CCC[C@H]1OC(=O)N[C@H](C(=O)N1C[C@H](Oc2cc3cc(OC)ccc3nc2C=C)C[C@H]1C(=O)OC)C(C)(C)C, rcm bond, Zhan catalyst, DCE, 16.0 mM, 90.0 °C, 2.0 h", "value": 84, "unit": "%"}]}
{"smiles": "COC(=O)[C@@H]1C[C@@H]2CN1C(=O)[C@H](C(C)(C)C)NC(=O)OCCCCCC=Cc1ccccc1C#CCO2.[C-]#[O+].[C-]#[O+].[C-]#[O+].[C-]#[O+].[C-]#[O+].[C-]#[O+].[Co].[Co]", "values": [{"measurement": "ring closure, yield of all isomers", "setting": "from C=CCCCCCOC(=O)N[C@H](C(=O)N1C[C@H](OCC#Cc2ccccc2C=C)C[C@H]1C(=O)OC)C(C)(C)C.[C-]#[O+].[C-]#[O+].[C-]#[O+].[C-]#[O+].[C-]#[O+].[C-]#[O+].[Co].[Co], rcm bond", "value": 34.5, "unit": "%"}]}
{"smiles": "COC(=O)[C@@H]1C[C@@H]2CN1C(=O)[C@H](C(C)(C)C)NC(=O)OCCCCC/C=C/c1cccnc1O2", "values": [{"measurement": "ring closure, yield of all isomers", "setting": "from C=CCCCCCOC(=O)N[C@H](C(=O)N1C[C@H](Oc2ncccc2C=C)C[C@H]1C(=O)OC)C(C)(C)C, rcm bond, Zhan 1b catalyst, DCM, 5.03 mM, 16.0 h", "value": 92.9, "unit": "%"}]}
{"smiles": "C=C1CCCCCOC(=O)N[C@@H](C2CCCCC2)C(=O)N2C[C@@H](C[C@H]2C(=O)OC)Oc2ccc3ccccc3c21", "values": [{"measurement": "ring closure, yield of all isomers", "setting": "from C=CCCCCCOC(=O)N[C@H](C(=O)N1C[C@H](Oc2ccc3ccccc3c2Br)C[C@H]1C(=O)OC)C1CCCCC1, cc_pd bond, PdCl2(dppf)-DCM, EtOH, 50.3 mM, 78.0 °C, 48.0 h", "value": 52.7, "unit": "%"}]}
{"smiles": "COC(=O)[C@@H]1C[C@@H]2CN1C(=O)[C@H](C1CCCC1)NC(=O)O[C@@H]1CCC[C@H]1CCCC=Cc1nc3ccccc3cc1O2", "note": "(mixture of isomers)", "values": [{"measurement": "ring closure, yield of all isomers", "setting": "from C=CCCC[C@@H]1CCC[C@H]1OC(=O)N[C@H](C(=O)N1C[C@H](Oc2cc3ccccc3nc2C=C)C[C@H]1C(=O)OC)C1CCCC1, rcm bond, Zhan catalyst, DCE, 10.0 mM, 90.0 °C, 1.5 h", "value": 74, "unit": "%"}]}
{"smiles": "COC(=O)[C@@H]1C[C@@H]2CN1C(=O)[C@H](C(C)(C)C)NC(=O)OCCCCC=CCC1CCCCC1OC(=O)N2", "note": "(stereo partly shown)", "values": [{"measurement": "ring closure, yield of all isomers", "setting": "from C=CCCCCOC(=O)N[C@H](C(=O)N1C[C@H](NC(=O)OC2CCCCC2CC=C)C[C@H]1C(=O)OC)C(C)(C)C, rcm bond, Zhan 1a catalyst, DCE, 5.0 mM, 83.0 °C, 1.5 h", "value": 49.8, "unit": "%"}]}
{"smiles": "CCCC[C@@H]1NC(=O)OCCCCC=CCc2ccccc2O[C@@H]2C[C@@H](C(=O)OC)N(C2)C1=O", "values": [{"measurement": "ring closure, yield of all isomers", "setting": "from C=CCCCCOC(=O)N[C@@H](CCCC)C(=O)N1C[C@H](Oc2ccccc2CC=C)C[C@H]1C(=O)OC, rcm bond, Zhan 1a catalyst, DCE, 4.9 mM, 83.0 °C, 2.0 h", "value": 100, "unit": "%"}]}
